Data as given in PMC8799717, “Pharmacological targeting PIKfyve and tubulin as an effective treatment strategy for double-hit lymphoma” (Cell Death Discovery, 2022).

Columns and labels:
Assay in all cases: biochemical
Set-up in all cases: KINOMEscan active-site-directed competition binding panel, 468 kinases, percent of DMSO control at 1 uM
Conditions in all cases: KINOMEscan binding, percent of DMSO control; read-out: Ctrl%
EPHA4 = EPHA4 (Homo sapiens, UniProt P54764)
MYO3A = MYO3A (Homo sapiens, UniProt Q8NEV4)
RET(M918T) = RET(M918T) (Homo sapiens, UniProt P07949, M918T)
MLCK = biological target: T1, MLCK (Homo sapiens, UniProt Q32MK0)
T1 construct: gene MYLK3

IKK-epsilon = biological target: T2, IKK-epsilon (Homo sapiens, UniProt Q14164)
T2 construct: gene IKBKE

STK36 = STK36 (Homo sapiens, UniProt Q9NRP7)
KIT(V559D,T670I) = KIT(V559D,T670I) (Homo sapiens, UniProt P10721, T670I/V559D)
INSRR = INSRR (Homo sapiens, UniProt P14616)
PIP5K1A = PIP5K1A (Homo sapiens, UniProt Q99755)
PKAC-alpha = biological target: T3, PKAC-alpha (Homo sapiens, UniProt P17612)
T3 construct: gene PRKACA

PRKCI = PRKCI (Homo sapiens, UniProt P41743)
TIE2 = biological target: T4, TIE2 (Homo sapiens, UniProt Q02763)
T4 construct: gene TEK

PDGFRB = PDGFRB (Homo sapiens, UniProt P09619)
CDC2L2 = biological target: T5, CDC2L2 (Homo sapiens, UniProt Q9UQ88)
T5 construct: gene CDK11A

MST1 = biological target: T6, MST1 (Homo sapiens, UniProt Q13043)
T6 construct: gene STK4

EPHA6 = EPHA6 (Homo sapiens, UniProt Q9UF33)
MKNK2 = MKNK2 (Homo sapiens, UniProt Q9HBH9)
FRK = FRK (Homo sapiens, UniProt P42685)
MERTK = MERTK (Homo sapiens, UniProt Q12866)
[1] = biological target: T7, RSK3(Kin.Dom.2-C-terminal) (Homo sapiens, UniProt Q15349)
T7 construct: gene RPS6KA2; Kin.Dom.2-C-terminal

ARK5 = biological target: T8, ARK5 (Homo sapiens, UniProt O60285)
T8 construct: gene NUAK1

PRKCD = PRKCD (Homo sapiens, UniProt Q05655)
TGFBR2 = TGFBR2 (Homo sapiens, UniProt P37173)
TSSK3 = TSSK3 (Homo sapiens, UniProt Q96PN8)

Sequence of MYO3A (Q8NEV4 whole entry): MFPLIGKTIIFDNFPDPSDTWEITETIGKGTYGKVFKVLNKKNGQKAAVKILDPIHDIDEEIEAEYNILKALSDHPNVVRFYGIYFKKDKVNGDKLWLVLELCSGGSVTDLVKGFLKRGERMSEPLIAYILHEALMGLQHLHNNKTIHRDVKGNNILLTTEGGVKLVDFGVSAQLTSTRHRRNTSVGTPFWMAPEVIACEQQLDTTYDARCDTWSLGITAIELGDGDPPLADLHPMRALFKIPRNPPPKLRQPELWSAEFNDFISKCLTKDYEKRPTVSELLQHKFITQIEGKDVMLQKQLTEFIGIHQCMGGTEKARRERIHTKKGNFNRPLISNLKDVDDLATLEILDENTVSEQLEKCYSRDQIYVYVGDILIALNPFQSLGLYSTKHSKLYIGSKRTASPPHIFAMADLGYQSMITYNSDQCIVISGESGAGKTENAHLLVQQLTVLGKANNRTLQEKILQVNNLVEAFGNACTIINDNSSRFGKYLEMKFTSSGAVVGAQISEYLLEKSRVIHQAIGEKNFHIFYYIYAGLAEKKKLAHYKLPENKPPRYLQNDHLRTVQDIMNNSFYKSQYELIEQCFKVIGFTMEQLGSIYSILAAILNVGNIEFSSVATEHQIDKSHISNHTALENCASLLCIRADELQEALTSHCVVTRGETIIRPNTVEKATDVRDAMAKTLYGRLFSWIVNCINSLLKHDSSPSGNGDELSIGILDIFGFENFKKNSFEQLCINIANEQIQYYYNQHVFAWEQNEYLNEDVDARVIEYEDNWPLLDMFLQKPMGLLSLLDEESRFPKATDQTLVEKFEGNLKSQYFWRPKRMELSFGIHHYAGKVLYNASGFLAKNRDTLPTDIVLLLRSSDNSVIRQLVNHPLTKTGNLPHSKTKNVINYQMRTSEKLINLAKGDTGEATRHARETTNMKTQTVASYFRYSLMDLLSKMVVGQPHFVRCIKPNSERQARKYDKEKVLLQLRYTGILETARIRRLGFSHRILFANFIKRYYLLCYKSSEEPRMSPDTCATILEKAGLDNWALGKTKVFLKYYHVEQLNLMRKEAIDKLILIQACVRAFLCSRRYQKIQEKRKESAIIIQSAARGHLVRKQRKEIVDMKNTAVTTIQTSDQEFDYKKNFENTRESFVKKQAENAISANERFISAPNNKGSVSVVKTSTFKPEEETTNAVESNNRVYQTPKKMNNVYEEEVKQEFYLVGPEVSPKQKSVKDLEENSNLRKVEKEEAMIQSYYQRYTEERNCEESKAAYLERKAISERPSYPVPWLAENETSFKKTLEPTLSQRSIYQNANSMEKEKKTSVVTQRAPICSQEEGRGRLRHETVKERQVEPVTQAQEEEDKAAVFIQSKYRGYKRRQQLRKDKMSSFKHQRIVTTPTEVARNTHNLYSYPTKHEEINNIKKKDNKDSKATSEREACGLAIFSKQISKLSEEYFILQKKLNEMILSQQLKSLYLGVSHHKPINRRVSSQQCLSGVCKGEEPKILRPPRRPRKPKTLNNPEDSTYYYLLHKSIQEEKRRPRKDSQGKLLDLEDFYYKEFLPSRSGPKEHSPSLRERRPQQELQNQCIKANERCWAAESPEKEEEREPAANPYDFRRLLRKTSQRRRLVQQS
T7 sequence (Q15349 whole entry): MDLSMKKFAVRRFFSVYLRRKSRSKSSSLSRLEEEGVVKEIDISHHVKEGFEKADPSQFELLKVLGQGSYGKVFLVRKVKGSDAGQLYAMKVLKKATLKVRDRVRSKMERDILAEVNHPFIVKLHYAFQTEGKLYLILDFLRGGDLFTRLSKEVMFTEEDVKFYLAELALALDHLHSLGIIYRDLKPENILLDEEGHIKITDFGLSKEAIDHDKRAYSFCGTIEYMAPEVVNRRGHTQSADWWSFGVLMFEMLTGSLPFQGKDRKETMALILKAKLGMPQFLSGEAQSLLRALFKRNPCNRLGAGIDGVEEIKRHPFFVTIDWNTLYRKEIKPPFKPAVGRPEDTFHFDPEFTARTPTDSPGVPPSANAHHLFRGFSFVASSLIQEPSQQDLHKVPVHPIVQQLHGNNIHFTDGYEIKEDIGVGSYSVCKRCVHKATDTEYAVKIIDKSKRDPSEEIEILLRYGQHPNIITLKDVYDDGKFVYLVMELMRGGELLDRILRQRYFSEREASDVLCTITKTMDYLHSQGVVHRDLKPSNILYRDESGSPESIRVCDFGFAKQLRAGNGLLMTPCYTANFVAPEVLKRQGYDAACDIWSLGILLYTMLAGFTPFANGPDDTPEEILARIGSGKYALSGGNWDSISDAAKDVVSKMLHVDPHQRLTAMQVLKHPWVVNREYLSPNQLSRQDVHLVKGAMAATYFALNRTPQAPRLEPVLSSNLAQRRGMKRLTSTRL
T2 sequence (Q14164 whole entry): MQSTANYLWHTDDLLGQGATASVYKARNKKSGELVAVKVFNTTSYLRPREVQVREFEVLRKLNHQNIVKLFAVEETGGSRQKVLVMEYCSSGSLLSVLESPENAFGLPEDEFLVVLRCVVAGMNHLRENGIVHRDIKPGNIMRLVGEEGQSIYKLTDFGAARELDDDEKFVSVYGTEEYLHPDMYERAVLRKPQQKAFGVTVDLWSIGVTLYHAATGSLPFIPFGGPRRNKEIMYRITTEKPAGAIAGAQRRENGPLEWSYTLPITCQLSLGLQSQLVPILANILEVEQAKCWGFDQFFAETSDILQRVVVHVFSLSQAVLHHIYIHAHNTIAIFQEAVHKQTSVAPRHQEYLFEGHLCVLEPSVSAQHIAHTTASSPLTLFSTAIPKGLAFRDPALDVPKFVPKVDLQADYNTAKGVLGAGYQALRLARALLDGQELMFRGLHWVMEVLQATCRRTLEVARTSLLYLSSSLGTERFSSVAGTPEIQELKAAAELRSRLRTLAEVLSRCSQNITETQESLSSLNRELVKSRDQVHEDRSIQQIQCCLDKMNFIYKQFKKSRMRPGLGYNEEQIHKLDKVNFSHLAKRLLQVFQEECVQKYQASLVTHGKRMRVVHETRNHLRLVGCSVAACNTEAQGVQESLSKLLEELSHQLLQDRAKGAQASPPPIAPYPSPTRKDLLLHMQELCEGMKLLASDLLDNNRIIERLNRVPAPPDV
T5 sequence (Q9UQ88 whole entry): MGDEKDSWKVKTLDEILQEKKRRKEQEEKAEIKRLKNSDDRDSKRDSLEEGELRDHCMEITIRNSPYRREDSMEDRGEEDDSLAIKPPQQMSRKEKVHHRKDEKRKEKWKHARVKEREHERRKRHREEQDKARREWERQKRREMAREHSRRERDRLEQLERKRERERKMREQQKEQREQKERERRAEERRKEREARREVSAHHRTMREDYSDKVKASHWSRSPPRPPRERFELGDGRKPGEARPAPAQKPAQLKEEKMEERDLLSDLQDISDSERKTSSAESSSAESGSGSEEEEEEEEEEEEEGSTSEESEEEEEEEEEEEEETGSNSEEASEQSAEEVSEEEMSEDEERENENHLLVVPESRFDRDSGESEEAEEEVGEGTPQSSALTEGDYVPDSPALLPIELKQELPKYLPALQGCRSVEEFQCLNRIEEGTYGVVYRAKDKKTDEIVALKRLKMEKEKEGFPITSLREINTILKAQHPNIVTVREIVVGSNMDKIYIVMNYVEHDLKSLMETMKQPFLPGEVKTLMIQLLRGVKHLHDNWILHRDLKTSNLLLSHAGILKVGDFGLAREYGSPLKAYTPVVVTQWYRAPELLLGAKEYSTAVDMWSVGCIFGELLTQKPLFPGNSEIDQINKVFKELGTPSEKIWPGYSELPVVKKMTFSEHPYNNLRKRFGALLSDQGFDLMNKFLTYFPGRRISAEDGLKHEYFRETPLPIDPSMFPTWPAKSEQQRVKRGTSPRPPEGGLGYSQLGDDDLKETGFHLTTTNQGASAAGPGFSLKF
T6 sequence (Q13043 whole entry): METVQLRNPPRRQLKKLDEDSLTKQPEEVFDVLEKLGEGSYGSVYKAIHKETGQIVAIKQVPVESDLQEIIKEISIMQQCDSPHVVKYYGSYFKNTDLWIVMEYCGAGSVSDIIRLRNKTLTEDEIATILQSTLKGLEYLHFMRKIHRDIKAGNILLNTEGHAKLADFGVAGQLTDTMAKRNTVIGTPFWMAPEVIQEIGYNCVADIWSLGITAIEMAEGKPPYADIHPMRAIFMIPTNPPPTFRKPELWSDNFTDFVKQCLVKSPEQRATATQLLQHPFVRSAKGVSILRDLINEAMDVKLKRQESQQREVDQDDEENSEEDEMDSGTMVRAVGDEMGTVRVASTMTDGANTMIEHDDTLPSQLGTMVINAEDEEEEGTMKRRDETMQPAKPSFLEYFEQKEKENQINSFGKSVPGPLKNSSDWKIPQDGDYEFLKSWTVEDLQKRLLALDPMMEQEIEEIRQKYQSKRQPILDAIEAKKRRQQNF
Sequence of FRK (P42685 whole entry): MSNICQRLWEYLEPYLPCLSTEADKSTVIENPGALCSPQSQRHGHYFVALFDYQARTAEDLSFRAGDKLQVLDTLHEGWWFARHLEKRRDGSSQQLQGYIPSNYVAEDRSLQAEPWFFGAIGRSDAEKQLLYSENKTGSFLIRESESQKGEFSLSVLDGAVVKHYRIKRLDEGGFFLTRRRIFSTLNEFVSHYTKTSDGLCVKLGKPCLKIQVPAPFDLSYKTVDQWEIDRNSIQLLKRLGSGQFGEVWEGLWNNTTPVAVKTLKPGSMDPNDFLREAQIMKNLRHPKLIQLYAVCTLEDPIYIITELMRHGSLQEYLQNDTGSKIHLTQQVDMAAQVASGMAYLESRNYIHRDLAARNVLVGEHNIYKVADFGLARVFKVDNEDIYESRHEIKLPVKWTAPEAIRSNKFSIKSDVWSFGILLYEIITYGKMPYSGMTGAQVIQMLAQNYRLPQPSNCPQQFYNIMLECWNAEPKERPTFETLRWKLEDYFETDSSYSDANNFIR

SMILES: Cc1ccc(NC(=O)c2cccc(C(F)(F)F)c2)cc1Nc1cc(-c2cccnc2)nc2[nH]ccc12 [HZX-02-059]
- remaining binding at 1 µM (EPHA4): 8.3%
- remaining binding at 1 µM (MYO3A): 91%
- remaining binding at 1 µM (RET(M918T)): 99%
- remaining binding at 1 µM (MLCK): 100%
- remaining binding at 1 µM (IKK-epsilon): 70%
- remaining binding at 1 µM (STK36): 89%
- remaining binding at 1 µM (KIT(V559D,T670I)): 80%
- remaining binding at 1 µM (INSRR): 100%
- remaining binding at 1 µM (PIP5K1A): 79%
- remaining binding at 1 µM (PKAC-alpha): 94%
- remaining binding at 1 µM (PRKCI): 71%
- remaining binding at 1 µM (TIE2): 66%
- remaining binding at 1 µM (PDGFRB): 3.3%
- remaining binding at 1 µM (CDC2L2): 80%
- remaining binding at 1 µM (MST1): 74%
- remaining binding at 1 µM (EPHA6): 69%
- remaining binding at 1 µM (MKNK2): 80%
- remaining binding at 1 µM (FRK): 4.7%
- remaining binding at 1 µM (MERTK): 86%
- remaining binding at 1 µM [1]: 89%
- remaining binding at 1 µM (ARK5): 100%
- remaining binding at 1 µM (PRKCD): 96%
- remaining binding at 1 µM (TGFBR2): 90%
- remaining binding at 1 µM (TSSK3): 100%
